From patent publication US20160024203A1, “METHODS OF PRODUCING ANTIBODIES IN YEAST” (BRISTOL-MYERS SQUIBB COMPANY, priority 2013, published 2016)

How the values were obtained:
P. pastoris = assay: Effects of hydroxyurea on cell growth and antibody productivity in P. pastoris fermentation (Run 01MAY11); assay type: cell-based, Pichia pastoris; conditions: for Sup Titer (Normalized): anti-IL-6 antibody supernatant titer; for Sup Titer (Normalized) / WB Titer (Normalized): lots T5, T6 and T10 + hydroxyurea 2.6-2.8 g/L; for WCW: lots T5, T6 and T10 + hydroxyurea 2.6-2.8 g/L added 5 hours after feed start, triplicate bioreactors; for WB Titer (Normalized): whole broth titer = supernatant titer*(1-WCW/1000)
Method: The glucose and ethanol were measured by YSI 2700 (YSI Incorporated, Yellow Springs, Ohio), O2 and CO2 of the exhaust line were measured by Questor GP Process Mass Spectrometer (ABB Extrel, Pittsburgh, Pa.) and the RQ value was calculated using below Equation [1]. The wet cell weight (WCW) was measured by centrifuging one (1) milliliter (mL) fermentation broth at 13,200 rpm for 10 minutes, weighing pellet, and calculated ratio of pellets weight (g) over volume (mL). The supernatant titer (g/L) was measured by the HPLC method and the whole broth (WB) titer was then calculated by below Equation[2]. Non reduced and reducing SDS-PAGE gels are performed following standard method.
WB_Titer=Supernatant_Titer*(1−WCW/1000)
The treatment cultures were operated the same way plus adding hydroxyurea 5 hours after feed start.

[1] = test system: suspended S. cerevisiae cells; conditions: 5.7 g/L hydroxyurea; cited from earlier work

NC(=O)NO [Hydroxyurea]
average whole broth titer (P. pastoris; 90 hours run time, three hydroxyurea treatment lots, three control lots 59.8): 75 normalized units | WCW reached/maintained by hydroxyurea treatment lots (P. pastoris; after peak cell density at 30-40 hours, control lots ~400 g/Kg, FIG. 8): ~450 g/kg | Sup Titer (Normalized) (P. pastoris; age 59 h): 83.9 ± 2.2 Normalized | WCW (P. pastoris; age 59 h): 437 ± 17 g/kg | WB Titer (Normalized) (P. pastoris; age 59 h): 47.2 ± 1.8 Normalized | Sup Titer (Normalized) (P. pastoris; age 90 h): 123.3 ± 5.8 Normalized | WCW (P. pastoris; age 90 h): 392 ± 20 g/kg | WB Titer (Normalized) (P. pastoris; age 90 h): 75.0 ± 2.7 Normalized | reduction of cell mass [1]: 50% | reduction of total polysaccharide content [1]: 65% | synthesis of protein and RNA [1]: not adversely affected
